Legend:
Format in all cases: in vivo
[1] = test system: Aphis craccivoral; assay: Insecticidal activities to aphids, immersion method; details: for Aphis craccivoral Mortality (%) 500 ppm: in vivo
Outline: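 Wingless adult aphids feeding on bean sprouts were dipped 5 s in 500 ppm compound (DMF stock diluted in 0.2 mL/L aqueous Triton X-100), blotted and held at 23° C. Dead counted at 24 h, three replicates; mortality corrected against Triton-only controls.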

[2] = test system: Nilaparvata lugens; assay: Insecticidal activities to plant hopper, spraying method; details: for Nilaparvata lugens Mortality (%) 500 ppm: in vivo
Outline: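 Nilaparvata lugens, 10 insects per tumbler, sprayed with 2 ml compound in acetone at 0.79-500 ppm, three replicates, aqueous acetone control. Dead insects counted after 24 h; mortality corrected against control survival.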

[3] = test system: Pseudaletia separate Walker; assay: Insecticidal activities to armyworm, leaf dipping and feeding; details: for Pseudaletia separate Walker Mortality (%) 500 ppm: in vivo
Description: (§1) Mortality (%)=(the number of the survival aphis in control group−the number of the survival aphis in the treatment group)/the number of the survival aphis in control group×100%
(3): Insecticidal Activities to Armyworm
Armyworm (Pseudaletia separate Walker) was tested by the way of leaf dipping and feeding. The test compound was exactly formulated with acetone into solutions having concentrations of 500, 250, 100, 50, 25, 12.5, 6.25, 3.13 and 1.57 ppm, respectively. Aqueous acetone solution was used as control. Fresh maize leaves were immersed in the solution for 3 seconds, dried at room temperature, and fed to the tested insects. Each treatment was tested with 10 insects and repeated for 3 tumblers (3 times). The number of killed insects was counted after 24 hours to calculate the mortality according to the above mentioned formula.

[4] = test system: Plutella xylostella; assay: Insecticidal activities to diamondback moth, feeding dipped leaves; details: for Plutella xylostella Mortality (%) 500 ppm: in vivo
Description: as §1
(4): Insecticidal Activities to Diamondback Moth
Diamondback moth (Plutella xylostella) was tested by the way of feeding dippedleaves. Fresh cabbage leaves were immersed in above mentioned solution for 3 seconds, dried at room temperature, and fed to the tested insects. Each treatment was tested with 10 insects and repeated for 3 tumblers (3 times), while water was used as control. The number of killed insects was counted after 24 hours to calculate the mortality according to the above mentioned formula.

## Cc1coc(C=C(C2=NCCN2Cc2ccc(Cl)nc2)[N+](=O)[O-])c1 [Compound 13]
[1]
  Aphis craccivoral Mortality (%) 500 ppm: 100%
[2]
  Nilaparvata lugens Mortality (%) 500 ppm: 100%
[3]
  Pseudaletia separate Walker Mortality (%) 500 ppm: 100%
[4]
  Plutella xylostella Mortality (%) 500 ppm: 100%

## O=[N+]([O-])C(=Cc1ccc(Br)o1)C1=NCCN1Cc1cnc(Cl)s1 [Compound 72]
[1]
  Aphis craccivoral Mortality (%) 500 ppm: 100%
[2]
  Nilaparvata lugens Mortality (%) 500 ppm: 100%
[3]
  Pseudaletia separate Walker Mortality (%) 500 ppm: 100%
[4]
  Plutella xylostella Mortality (%) 500 ppm: 100%

## O=[N+]([O-])C(=Cc1oc(Cl)cc1Cl)C1=NCCN1Cc1cnc(Cl)s1 [Compound 76]
[1]
  Aphis craccivoral Mortality (%) 500 ppm: 100%
[2]
  Nilaparvata lugens Mortality (%) 500 ppm: 100%
[3]
  Pseudaletia separate Walker Mortality (%) 500 ppm: 100%
[4]
  Plutella xylostella Mortality (%) 500 ppm: 100%

## CC(=C(C1=NCCN1C(C)c1ccc(Cl)nc1)[N+](=O)[O-])c1ccc([N+](=O)[O-])o1 (racemic) [Compound 135]
[1]
  Aphis craccivoral Mortality (%) 500 ppm: 56%
[2]
  Nilaparvata lugens Mortality (%) 500 ppm: 63%
[3]
  Pseudaletia separate Walker Mortality (%) 500 ppm: 45%
[4]
  Plutella xylostella Mortality (%) 500 ppm: 56%

## CCc1ccc(C=C(C2=[N+](C)CCN2Cc2ccc(Cl)nc2)[N+](=O)[O-])s1.[Cl-] [Compound 272]
[1]
  Aphis craccivoral Mortality (%) 500 ppm: 100%
[2]
  Nilaparvata lugens Mortality (%) 500 ppm: 100%
[3]
  Pseudaletia separate Walker Mortality (%) 500 ppm: 100%
[4]
  Plutella xylostella Mortality (%) 500 ppm: 100%

## O=[N+]([O-])C(=Cc1ccc(Br)s1)C1=NCCN1Cc1ccc(Cl)nc1 [Compound 20]
[1]
  Aphis craccivoral Mortality (%) 500 ppm: 100%
[2]
  Nilaparvata lugens Mortality (%) 500 ppm: 100%
[3]
  Pseudaletia separate Walker Mortality (%) 500 ppm: 100%
[4]
  Plutella xylostella Mortality (%) 500 ppm: 100%

## O=[N+]([O-])C(=Cc1cncs1)C1=NCCN1Cc1ccc(Cl)nc1 [Compound 34]
[1]
  Aphis craccivoral Mortality (%) 500 ppm: 100%
[2]
  Nilaparvata lugens Mortality (%) 500 ppm: 100%
[3]
  Pseudaletia separate Walker Mortality (%) 500 ppm: 100%
[4]
  Plutella xylostella Mortality (%) 500 ppm: 100%

## O=[N+]([O-])C(=Cc1ccco1)C1=NCCN1Cc1ccccc1 [Compound 103]
[1]
  Aphis craccivoral Mortality (%) 500 ppm: 86%
[2]
  Nilaparvata lugens Mortality (%) 500 ppm: 100%
[3]
  Pseudaletia separate Walker Mortality (%) 500 ppm: 70%
[4]
  Plutella xylostella Mortality (%) 500 ppm: 25%

## O=[N+]([O-])C(=Cc1ccccc1O)C1=NCCN1Cc1ccc(Cl)nc1 [Compound 45]
[1]
  Aphis craccivoral Mortality (%) 500 ppm: 56%
[2]
  Nilaparvata lugens Mortality (%) 500 ppm: 76%
[3]
  Pseudaletia separate Walker Mortality (%) 500 ppm: 89%
[4]
  Plutella xylostella Mortality (%) 500 ppm: 23%

## O=[N+]([O-])C(=Cc1cc(Cl)c(Cl)o1)C1=NCCN1CC1CCOC1 (stereo not shown) [Compound 98]
[1]
  Aphis craccivoral Mortality (%) 500 ppm: 76%
[2]
  Nilaparvata lugens Mortality (%) 500 ppm: 90%
[3]
  Pseudaletia separate Walker Mortality (%) 500 ppm: 68%
[4]
  Plutella xylostella Mortality (%) 500 ppm: 77%

## C[N+]1=C(C(=Cc2cc(Br)cs2)[N+](=O)[O-])N(Cc2ccc(Cl)nc2)CC1.[Cl-] [Compound 265]
[1]
  Aphis craccivoral Mortality (%) 500 ppm: 100%
[2]
  Nilaparvata lugens Mortality (%) 500 ppm: 100%
[3]
  Pseudaletia separate Walker Mortality (%) 500 ppm: 100%
[4]
  Plutella xylostella Mortality (%) 500 ppm: 100%

## C[N+]1=C(C(=Cc2cc(Br)c(Br)o2)[N+](=O)[O-])N(Cc2ccc(Cl)nc2)CC1.[Cl-] [Compound 253]
[1]
  Aphis craccivoral Mortality (%) 500 ppm: 100%
[2]
  Nilaparvata lugens Mortality (%) 500 ppm: 100%
[3]
  Pseudaletia separate Walker Mortality (%) 500 ppm: 100%
[4]
  Plutella xylostella Mortality (%) 500 ppm: 100%

## C[N+]1=C(C(=Cc2ccc(Br)o2)[N+](=O)[O-])N(Cc2cnc(Cl)s2)CC1.[Cl-] [Compound 279]
[1]
  Aphis craccivoral Mortality (%) 500 ppm: 100%
[2]
  Nilaparvata lugens Mortality (%) 500 ppm: 100%
[3]
  Pseudaletia separate Walker Mortality (%) 500 ppm: 100%
[4]
  Plutella xylostella Mortality (%) 500 ppm: 100%

## CC[N+]1=C(/C(=C\c2ccc[nH]2)[N+](=O)[O-])N(Cc2ccc(Cl)nc2)CC1.[Cl-] [Compound 295]
[1]
  Aphis craccivoral Mortality (%) 500 ppm: 100%
[2]
  Nilaparvata lugens Mortality (%) 500 ppm: 100%
[3]
  Pseudaletia separate Walker Mortality (%) 500 ppm: 100%
[4]
  Plutella xylostella Mortality (%) 500 ppm: 100%

## C[N+]1=C(C(=Cc2ccc([N+](=O)[O-])o2)[N+](=O)[O-])N(Cc2cnc(Cl)s2)CC1.[Cl-] [Compound 277]
[1]
  Aphis craccivoral Mortality (%) 500 ppm: 100%
[2]
  Nilaparvata lugens Mortality (%) 500 ppm: 100%
[3]
  Pseudaletia separate Walker Mortality (%) 500 ppm: 100%
[4]
  Plutella xylostella Mortality (%) 500 ppm: 100%

## N#CC(=Cc1ccoc1)C1=NCCN1Cc1ccc(Cl)nc1 [Compound 141]
[1]
  Aphis craccivoral Mortality (%) 500 ppm: 100%
[2]
  Nilaparvata lugens Mortality (%) 500 ppm: 100%
[3]
  Pseudaletia separate Walker Mortality (%) 500 ppm: 100%
[4]
  Plutella xylostella Mortality (%) 500 ppm: 100%

## O=[N+]([O-])C(=Cc1ccc(Br)o1)C1=NCCN1CC1CCOC1 (stereo not shown) [Compound 95]
[1]
  Aphis craccivoral Mortality (%) 500 ppm: 65%
[2]
  Nilaparvata lugens Mortality (%) 500 ppm: 61%
[3]
  Pseudaletia separate Walker Mortality (%) 500 ppm: 87%
[4]
  Plutella xylostella Mortality (%) 500 ppm: 92%

## O=[N+]([O-])C(=Cc1ccsc1)C1=NCCCN1Cc1ccc(Cl)nc1 [Compound 62]
[1]
  Aphis craccivoral Mortality (%) 500 ppm: 90%
[2]
  Nilaparvata lugens Mortality (%) 500 ppm: 100%
[3]
  Pseudaletia separate Walker Mortality (%) 500 ppm: 100%
[4]
  Plutella xylostella Mortality (%) 500 ppm: 100%

## CCN(Cc1ccc(Cl)nc1)C(=N\C)/C(=C\c1ccco1)[N+](=O)[O-] [Compound 151, N-((6-chloropyridin-3-yl)methyl)-N-ethyl-3-(furan-2-yl)-N′-methyl-2-nitro acrylamidine]
[1]; Aphis, 24 h, read-out: Aphis craccivoral Mortality (%) 500 ppm
  mortality at 500 ppm: 76%
[2]; Nilaparvata lugens, 24 h, read-out: Nilaparvata lugens Mortality (%) 500 ppm
  mortality at 500 ppm: 87%
[3]; Zea mays, foliar, 24 h, read-out: Pseudaletia separate Walker Mortality (%) 500 ppm
  mortality at 500 ppm: 86%
[4]; Plutella xylostella, in Brassica oleracea, 24 h, read-out: Plutella xylostella Mortality (%) 500 ppm
  mortality at 500 ppm: 79%

## O=[N+]([O-])C(=Cc1ccc(CO)o1)C1=NCCCN1Cc1ccc(Cl)nc1 [Compound 60]
[1]
  Aphis craccivoral Mortality (%) 500 ppm: 47%
[2]
  Nilaparvata lugens Mortality (%) 500 ppm: 56%
[3]
  Pseudaletia separate Walker Mortality (%) 500 ppm: 84%
[4]
  Plutella xylostella Mortality (%) 500 ppm: 100%

## C[N+]1=C(C(=Cc2ccc([N+](=O)[O-])s2)[N+](=O)[O-])N(Cc2ccc(Cl)nc2)CC1.[Cl-] [Compound 261]
[1]
  Aphis craccivoral Mortality (%) 500 ppm: 100%
[2]
  Nilaparvata lugens Mortality (%) 500 ppm: 100%
[3]
  Pseudaletia separate Walker Mortality (%) 500 ppm: 100%
[4]
  Plutella xylostella Mortality (%) 500 ppm: 100%

## C[N+]1=C(C(=Cc2ccc([N+](=O)[O-])s2)[N+](=O)[O-])N(Cc2cnc(Cl)s2)CC1.[Cl-] [Compound 282]
[1]
  Aphis craccivoral Mortality (%) 500 ppm: 100%
[2]
  Nilaparvata lugens Mortality (%) 500 ppm: 100%
[3]
  Pseudaletia separate Walker Mortality (%) 500 ppm: 100%
[4]
  Plutella xylostella Mortality (%) 500 ppm: 100%

Reference: patent US8232407B2, “Nitrogenous heterocyclic compounds with insecticidal activity, and the preparation and use thereof” (East China University of Science and Technology, priority 2008, dated 2012)
